# Experiments:
# Assay in all cases: relative viability (nuclei count vs DMSO), 5 days (fraction); higher = more cells survive
# Palbociclib + Trametinib = compound: CC(=O)c1c(C)c2cnc(Nc3ccc(N4CCNCC4)cn3)nc2n(C2CCCC2)c1=O [Palbociclib] + CC(=O)Nc1cccc(-n2c(=O)n(C3CC3)c(=O)c3c(Nc4ccc(I)cc4F)n(C)c(=O)c(C)c32)c1 [Trametinib] (partner 0.02 µM)
# Method in brief: (§1)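 Dosing by pin tool came one day after lung cancer cell lines were seeded in 1536-well plates, using either one drug or a fixed anchor-drug dose plus five library-drug doses (not always all listed) in √10 steps. After 5 days, nuclei were counted on 4× images. Relative viability is treated-well nuclei count divided by vehicle-well nuclei count, and values are medians of duplicate plates.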
# Palbociclib + Bortezomib = compound: CC(=O)c1c(C)c2cnc(Nc3ccc(N4CCNCC4)cn3)nc2n(C2CCCC2)c1=O [Palbociclib] + CC(C)C[C@H](NC(=O)[C@H](Cc1ccccc1)NC(=O)c1cnccn1)B(O)O [Bortezomib] (partner 0.002 µM)
# Method in brief: as §1
# Palbociclib + Dasatinib = compound: CC(=O)c1c(C)c2cnc(Nc3ccc(N4CCNCC4)cn3)nc2n(C2CCCC2)c1=O [Palbociclib] + Cc1nc(Nc2ncc(C(=O)Nc3c(C)cccc3Cl)s2)cc(N2CCN(CCO)CC2)n1 [Dasatinib] (partner 0.075 µM)
# Method in brief: as §1
# Palbociclib + AZD7762 = compound: CC(=O)c1c(C)c2cnc(Nc3ccc(N4CCNCC4)cn3)nc2n(C2CCCC2)c1=O [Palbociclib] + NC(=O)Nc1cc(-c2cccc(F)c2)sc1C(=O)N[C@H]1CCCNC1 [AZD7762] (partner 0.2 µM)
# Method in brief: as §1
Cell Line,relative viability (Palbociclib + Trametinib; first compound 0.01 µM),relative viability (Palbociclib + Trametinib; first compound 0.03162 µM),relative viability (Palbociclib + Trametinib; first compound 0.1 µM),relative viability (Palbociclib + Trametinib; first compound 0.3162 µM),relative viability (Palbociclib + Trametinib; first compound 1 µM),relative viability (Palbociclib + Bortezomib; first compound 0.01 µM),relative viability (Palbociclib + Bortezomib; first compound 0.03162 µM),relative viability (Palbociclib + Bortezomib; first compound 0.1 µM),relative viability (Palbociclib + Bortezomib; first compound 0.3162 µM),relative viability (Palbociclib + Bortezomib; first compound 1 µM),relative viability (Palbociclib + Dasatinib; first compound 0.01 µM),relative viability (Palbociclib + Dasatinib; first compound 0.03162 µM),relative viability (Palbociclib + Dasatinib; first compound 0.1 µM),relative viability (Palbociclib + Dasatinib; first compound 0.3162 µM),relative viability (Palbociclib + Dasatinib; first compound 1 µM),relative viability (Palbociclib + AZD7762; first compound 0.01 µM),relative viability (Palbociclib + AZD7762; first compound 0.03162 µM),relative viability (Palbociclib + AZD7762; first compound 0.1 µM),relative viability (Palbociclib + AZD7762; first compound 0.3162 µM),relative viability (Palbociclib + AZD7762; first compound 1 µM)
NCI-H1666,0.862,0.704,0.784,0.727,0.728,0.924,0.787,0.709,0.599,0.429,0.874,0.644,0.683,0.583,0.477,0.881,0.58,0.842,0.74,0.684
NCI-H1734,0.617,0.6,0.581,0.56,0.481,0.896,0.532,0.661,0.619,0.409,0.461,0.365,0.393,0.296,0.254,0.53,0.417,0.454,0.453,0.356
NCI-H1755,0.804,0.746,0.688,0.719,0.597,0.977,0.761,0.803,0.733,0.483,0.381,0.373,0.371,0.399,0.279,0.476,0.402,0.436,0.451,0.421
NCI-H1792,0.501,0.376,0.323,0.338,0.213,0.934,0.875,0.917,0.852,0.711,0.848,0.727,0.63,0.551,0.468,0.663,0.559,0.462,0.576,0.185
NCI-H1915,0.29,–,0.297,0.289,0.245,1.02,0.684,0.921,0.947,0.778,0.293,0.247,0.28,0.247,0.245,0.685,–,0.718,0.649,0.608
NCI-H1975,0.402,0.372,0.309,0.353,0.236,0.356,0.356,0.349,0.406,0.366,0.373,0.347,0.323,0.322,0.297,0.715,0.772,0.609,0.659,0.531
NCI-H1993,0.564,0.612,0.418,0.332,0.514,1.23,0.905,0.969,0.763,0.814,0.68,0.542,0.509,0.415,0.439,0.748,0.646,0.575,0.632,0.528
NCI-H2085,0.529,0.516,0.588,0.482,0.34,0.991,0.99,0.969,0.871,0.543,0.233,0.282,0.209,0.252,0.191,1.06,0.912,0.942,0.76,0.473
